What was measured:
Assay in all cases: relative viability (nuclei count vs DMSO), 5 days (fraction); higher = more cells survive
[1] = compound: Cc1ccc2nc(NCCN)c3ncc(C)n3c2c1 + CS(=O)(=O)CCNCc1ccc(-c2ccc3ncnc(Nc4ccc(OCc5cccc(F)c5)c(Cl)c4)c3c2)o1 [Lapatinib] (partner 2 µM)
Method in brief: (§1)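 Lung cancer cell lines in 1536-well plates were dosed by pin tool the day after seeding, either with one drug alone or with a fixed anchor-drug dose plus five library-drug doses (not always all listed) in √10 steps. After 5 days, cells were fixed and their nuclei stained in one step (final 0.05% Triton X-100, 1% formaldehyde, 1 ug/ml Hoechst), then counted on 4× images. Relative viability is the nuclei count in treated wells divided by that in vehicle wells. Values are medians of duplicate plates.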

[2] = compound: Cc1ccc2nc(NCCN)c3ncc(C)n3c2c1 + O=C(c1cc(Cc2n[nH]c(=O)c3ccccc23)ccc1F)N1CCN(C(=O)C2CC2)CC1 [Olaparib] (partner 8 µM)
Method in brief: as §1

Salubrinal + Tozasertib = compound: O=C(/C=C/c1ccccc1)NC(NC(=S)Nc1cccc2cccnc12)C(Cl)(Cl)Cl [Salubrinal] + Cc1cc(Nc2cc(N3CCN(C)CC3)nc(Sc3ccc(NC(=O)C4CC4)cc3)n2)n[nH]1 [Tozasertib] (partner 0.1 µM)
Method in brief: as §1

Salubrinal + Decitabine = compound: O=C(/C=C/c1ccccc1)NC(NC(=S)Nc1cccc2cccnc12)C(Cl)(Cl)Cl [Salubrinal] + Nc1ncn([C@H]2C[C@H](O)[C@@H](CO)O2)c(=O)n1 [Decitabine] (partner 2 µM)
Method in brief: as §1

| Cell Line | relative viability ([1]; first compound 0.04 µM) | relative viability ([1]; first compound 0.1265 µM) | relative viability ([1]; first compound 0.4 µM) | relative viability ([1]; first compound 1.265 µM) | relative viability ([1]; first compound 4 µM) | relative viability ([2]; first compound 0.04 µM) | relative viability ([2]; first compound 0.1265 µM) | relative viability ([2]; first compound 0.4 µM) | relative viability ([2]; first compound 1.265 µM) | relative viability ([2]; first compound 4 µM) | relative viability (Salubrinal + Tozasertib; first compound 0.08 µM) | relative viability (Salubrinal + Tozasertib; first compound 0.253 µM) | relative viability (Salubrinal + Tozasertib; first compound 0.8 µM) | relative viability (Salubrinal + Tozasertib; first compound 2.53 µM) | relative viability (Salubrinal + Tozasertib; first compound 8 µM) | relative viability (Salubrinal + Decitabine; first compound 0.08 µM) | relative viability (Salubrinal + Decitabine; first compound 0.253 µM) | relative viability (Salubrinal + Decitabine; first compound 0.8 µM) | relative viability (Salubrinal + Decitabine; first compound 2.53 µM) | relative viability (Salubrinal + Decitabine; first compound 8 µM) |
| --- | --- | --- | --- | --- | --- | --- | --- | --- | --- | --- | --- | --- | --- | --- | --- | --- | --- | --- | --- | --- |
| NCI-H1437 | 0.817 | 0.794 | 0.777 | 0.819 | 0.733 | 0.641 | 0.613 | 0.616 | 0.643 | 0.553 | 0.415 | 0.362 | 0.418 | 0.404 | 0.373 | 0.549 | 0.502 | 0.523 | 0.564 | 0.612 |
| NCI-H1650 | 0.887 | 0.764 | 0.434 | 0.836 | 0.65 | 0.647 | 0.804 | 0.715 | 0.821 | 0.549 | 0.419 | 0.349 | 0.336 | 0.327 | 0.407 | 0.522 | 0.453 | 0.417 | 0.476 | 0.455 |
| NCI-H1651 | 0.853 | 0.879 | 0.841 | 0.894 | 0.737 | 0.178 | 0.181 | 0.179 | 0.18 | 0.175 | 0.711 | 0.639 | 0.776 | 0.608 | 0.734 | 0.654 | 0.542 | 0.681 | 0.634 | 0.661 |
| NCI-H1666 | 0.788 | 0.64 | 0.505 | 0.478 | 0.568 | 0.719 | 0.755 | 0.751 | 0.76 | 0.749 | 0.646 | 0.587 | 0.611 | 0.553 | 0.608 | 0.741 | 0.726 | 0.788 | 0.712 | 0.895 |
| NCI-H1734 | 1.11 | 1 | 1.13 | 1.07 | 0.941 | 0.666 | 0.617 | 0.658 | 0.321 | 0.553 | 0.304 | 0.256 | 0.294 | 0.274 | 0.268 | 0.573 | 0.51 | 0.527 | 0.474 | 0.477 |
| NCI-H1755 | 1.1 | 1.03 | 0.934 | 1.1 | 1.04 | 0.859 | 0.878 | 0.835 | 0.903 | 0.791 | 0.573 | 0.61 | 0.611 | 0.457 | 0.507 | 0.759 | 0.686 | 0.744 | 0.725 | 0.68 |

From the supplement of paper PMC10307832
